Measurements reported in patent publication US11766068B1, “Method of treating smokeless tobacco” (Altria Client Services LLC, priority 2009, dated 2023).

Legend:
cells = experiment: Cell death during cell wounding by washed MST, platform rocker exposure system; assay type: cell-based; details: for cell death associated with MST-extract exposure during cell wounding: MST-extract containing 9.5 mM chelator, with washed MST, 30 minutes
Method: Cell death was measured immediately following treatment.
We then treated cells for 30 minutes with MST-extract/chelator preparations in the presence of washed MST using the platform exposure system and assessed cell death immediately following treatment.

[1] = for chelation of free calcium of MST-extract: 9.5 mM chelator in MST-extract
Method: The term “free” with regard to (1) calcium and (2) iron refers to (1) Ca^2+ and (2) Fe^2+ and/or Fe^3+, respectively. Determination of an amount of free iron and/or free calcium in smokeless tobacco can be made by first incubating the smokeless tobacco with any chelators that may be used for an appropriate amount of time (for example, one day), then separating extract by centrifugation with glass beads. […] Then, fifteen grams of Glass Beads (Kimble; 6 MM catalog # 13500-6) can be added to the Vectrospin™ tube containing the tobacco. The tube is preferably centrifuged at 2200 g for 20 minutes to recover tobacco extract. Free calcium and iron can be measured using the respective QuantiChrom™ assay kits (BioAssay Systems, Hayward, CA) according to the manufacturer’s instructions.

Klebsiella pneumoniae = details: cited from earlier work
HOK-16B cells [2] = experiment: Morphologic assessment of necrotic/apoptotic cell death (Hema 3 staining); assay type: cell-based, human; details: for protection from STE-induced cell death: TROLOX 20 µmol/L, L-ascorbic acid 50 µmol/L or deferoxamine 50 µmol/L, 30 min prior to STE, FIG. 1D
Method: (§1) Extracts of smokeless tobacco were prepared in cell growth medium as follows. One gram of reference smokeless tobacco was mixed with 10 ml of cell growth medium and placed on a shaker at 300 rpm and allowed to mix for 2 hours at 37° C. It was then centrifuged at 125 g for 10 minites at 4° C. The extracted supernatant was collected and centrifuged at 14,000 g for 1 hour at 4° C. The supernatant was filtered using a 0.22 µm filter, divided into aliquots, and immediately stored at -80° C. The extracted supernatant yielded a 100 mg/ml smokeless tobacco extract (STE) solution, which was serially diluted to obtain the doses of STE (1-100 mg/ml) used.
The primary HOK cells, isolated from human oral mucosa, were plated on poly-L-lysine coated plates at a density of 5 × 10^5 cells/well in a 12-well plate and cultured in keratinocyte medium at 37° C. in a humidified atmosphere containing 5% CO2 (v/v). HOK-16B cells were plated at a density of 5 × 10^5 cells/well in a 12-well plate and cultured in keratinocyte growth medium supplemented with 0.1 ng/ml epidermal growth factor, 5 µg/ml insulin, 30 µg/mlgentamicin, and 50 µg/mlamphoterecin at 37° C. in a humidified atmosphere containing 5% CO2 (v/v). The Het-1A cells were attached to plates pre-coated with LHC-9 medium supplemented with 0.01 mg/ml fibronectin, 0.03 mg/ml bovine collagen type I and 0.01 mg/ml bovine serum albumin for 1 hour, at a density of 5 × 10^5 cells/well in a 12-well plate and cultured in LHC-9 medium at 37° C. in a humidified atmosphere containing 5% CO2 (v/v). Unless otherwise indicated, cells were exposed to STE at 24 hours after plating.
Cells were treated with TROLOX (6-hydroxy-2,5,7,8-tetramethylchroman-2-carboxylic acid, a water-soluble derivative of vitamin E) at 20 µmol/L, L-ascorbic acid (50 µmol/L), or deferoxamine (50 µmol/L) 30 min prior to STE addition. Treatment was from a 10 mM stock solution of each agent, and the maximal concentration of vehicle [dimethyl sulfoxide (DMSO)] in culture medium was 0.01% (v/v). When possible, agents were diluted in appropriate cell culture medium (TROLOX, L-ascorbic acid, deferoxamine). Exposure to STE is expressed in terms of the amount of reference MST used to produce the total volume of STE [i.e., 100 mg/ml (w/v)]. The indicated concentrations of STE (1-100 mg/ml) exposure were chosen for these studies because they are within the reference range of previously cited works involving smokeless tobacco exposure (Bagchi et al., “Smokeless tobacco, oxidative stress, apoptosis, and antioxidants in human oral keratinocytes.: Free Radic. Biol. Med. 26, 992-1000 (1999); Mangipudy et al., “Role of nitric oxide in the induction of apoptosis by smokeless tobacco extract.” Mol Cell Biochem. 200, 51-57 (1999); and Petro, “Modulation of IL-12 p35 and p40 promoter activity by smokeless tobacco extract is associated with an effect upon activation of NF-kappaB but not IRF transcription factors.” Int. Immunopharmacol.
Morphologic assessment of viable cells and apoptotic and necrotic cell death was performed as follows. Cells were harvested 3 hours after STE exposure, unless otherwise noted, by treatment with trypsin-EDTA for approximately 5 minutes at 37° C. As some apoptotic cells detached from the culture substratum into the medium, these cells were also collected by centrifugation of the medium at 125 g for 5 minutes. […] Nuclear and total cellular morphology were evaluated. […]

HOK-16B cells [3] = experiment: Intracellular ROS generation (DCFH-DA fluorescence) after STE exposure; assay type: cell-based, human; details: TROLOX 20 µmol/L, L-ascorbic acid 50 µmol/L or deferoxamine 50 µmol/L, 30 min prior to STE addition; FIG. 1C
Method: as §1, with “used. […]” for “used.”
The intracellular generation of reactive oxygen species (ROS) was measured by using membrane permeable oxidation-sensitive fluorescent dye DCFH-DA. […] Fluorescence measurements were obtained 0 to 3 hours after STE addition, at the indicated concentrations, with a plate reader. Thirty minutes before the measurement of ROS in the plate reader, cells were incubated with DCFH-DA (25 µmol/L) or DMSO vehicle. The medium was then rapidly removed, the cells were washed in ice-cold phosphate-buffered saline and replaced with medium lacking dye, and the plate was placed into the plate reader. Data at each time point are presented corrected for basal fluorescence of vehicle-treated cells at the same time point. […]

SMILES | cell death associated with MST-extract exposure during cell wounding (cells) | chelation of free calcium of MST-extract [1] | capsule production of Klebsiella pneumoniae (Klebsiella pneumoniae) | production of ROS induced by STE (HOK-16B cells [3]) | protection from STE-induced cell death (HOK-16B cells [2]) | also measured
O=C(O)CN(CCN(CC(=O)O)CC(=O)O)CC(=O)O [EDTA, ethylenediamine tetraacetic acid] | reduced cell death | nearly all | reduced capsule production | – | – | –
O=C(O)CN(CCOCCOCCN(CC(=O)O)CC(=O)O)CC(=O)O [EGTA, ethylene glycol tetraacetic acid] | reduced cell death | nearly all | reduced capsule production | – | – | cell death with chelator-treated high Ca2+ medium in combination with washed MST (cells; free calcium reduced to less than 2 mM): significantly reduced degree of cell death; free calcium levels in the high Ca2+ medium after chelator addition ([1]; 13.5 mM Ca2+ medium): less than 2 mM
[Cl][Fe]([Cl])[Cl] [FeCl3] | – | – | – | – | – | percent necrotic cell death after 3 hours (HOK-16B cells [2]; free iron 14 pM in cell culture medium without STE, 0 pM gave 4.9 ± 0.6%): 13.4 ± 1.0%; percent necrotic cell death after 3 hours (HOK-16B cells [2]; free iron 31 pM in cell culture medium without STE): 26.2 ± 3.5%; percent necrotic cell death after 3 hours (HOK-16B cells [2]; free iron 71 pM in cell culture medium without STE): 37.9 ± 4.5%
O=C1O[C@H]([C@@H](O)CO)C(O)=C1O [L-ascorbic acid] | – | – | – | completely suppressed | can protect against cell death | –
Cc1c(C)c2c(c(C)c1O)CCC(C)(C(=O)O)O2 (stereo not drawn) [TROLOX, 6-hydroxy-2,5,7,8-tetramethylchroman-2-carboxylic acid] | – | – | – | completely suppressed | can protect against cell death | –
